Results published in patent publication US20080200467A1, “SOLUBLE EPOXIDE HYDROLASE INHIBITORS” (Arete Therapeutics, Inc., priority 2006, published 2008).

These molecules were tested on soluble epoxide hydrolase (sEH) (assay: Fluorescent Assay for Mouse and Human Soluble Epoxide Hydrolase (CMNPC substrate)). Settings: Concentration 500 nM.
Assay type: biochemical
Text: Fluorescent Assay for Mouse and Human Soluble Epoxide Hydrolase Recombinant mouse sEH (MsEH) and human sEH (HsEH) were produced in a baculovirus expression system as previously reported. Grant et al., J. Biol. Chem., 268:17628-17633 (1993); Beetham et al., Arch. Biochem. Biophys., 305:197-201 (1993). The expressed proteins were purified from cell lysate by affinity chromatography. Wixtrom et al., Anal. Biochem., 169:71-80 (1988). Protein concentration was quantified using the Pierce BCA assay using bovine serum albumin as the calibrating standard. The preparations were at least 97% pure as judged by SDS-PAGE and scanning densitometry. They contained no detectable esterase or glutathione transferase activity which can interfere with the assay. The assay was also evaluated with similar results in crude cell lysates or homogenate of tissues. The IC50s for each inhibitor were according to the following procedure: [drawing 218] […] Jones P. D. et. al.; Analytical Biochemistry 2005; 343: pp. 66-75) Bis/Tris HCl 25 mM pH 7.0 containing 0.1 mg/mL of BSA (buffer […] at 0.25 mM in DMSO. Mother solution of enzyme in buffer A (Mouse sEH at 6 μg/mL and Human sEH at 5 μg/mL). Inhibitor dissolved in DMSO at the appropriate concentration. In a black 96 well plate, fill all the wells with 150 μL of buffer A. Add 2 μL of DMSO in well A2 and A3, and then add 2 μL of inhibitor solution in A1 and A4 through A12. Add 150 μL of buffer A in row A, then mix several time and transfer 150 μL to row B. Repeat this operation up to row H. The 150 μL removed from row H is discarded. Add 20 μL of buffer A in column 1 and 2, then add 20 μL of enzyme solution to column 3 to 12. Incubate the plate for 5 minutes in the plate reader at 30° C. During incubation prepare the working solution of substrate by mixing 3.68 mL of buffer A (4×0.920 mL) with 266 μL (2×133 μL) of substrate solution). At t=0, add 30 μL of working substrate solution with multi-channel pipette labeled “Briggs 303” and start the reading ([S]final: 5 μM). Read with ex: 330 nm (20 nm) and em: 465 nm (20 nm) every 30 second for 10 minutes. The velocities are used to analyze and calculate the IC50s. Tables 4-6 show the activity of compounds when tested with the assay at 50, 500, 5000, 50000, and 500000 nM.

Compared with `O=C(Nc1cccc(OCCCN2CCOCC2)c1)C(=O)c1ccc(C(F)(F)F)cc1` [Compound 1, N-[3-(3-Morpholin-4-yl-propoxy)-phenyl]-2-oxo-2-(4-trifluoromethyl-phenyl)-acetamide], `O=C(Nc1cccc(OCc2ccccc2)c1)C(O)CC12CC3CC(CC(C3)C1)C2` (stereo not shown) [Compound 115, 3-Adamantan-1-yl-N-(3-benzyloxy-phenyl)-2-hydroxy-propionamide] is higher in “% Inhibition” value: 65% for the first, 89% for the second.

`O=C(NCC12CC3CC(CC(C3)C1)C2)C(O)Cc1ccc(OCc2ccccc2)cc1` (stereo not shown) [Compound 106, N-Adamantan-1-ylmethyl-3-(4-benzyloxy-phenyl)-2-hydroxy-propionamide] was tested, and the “% Inhibition” value was 82%.

Same assay, conditions: Concentration 5000 nM

Going from `O=C(Nc1cccc(OCc2ccccc2)c1)C(=O)c1ccc(C(F)(F)F)cc1` [Compound 5, N-(3-Benzyloxy-phenyl)-2-oxo-2-(4-trifluoromethyl-phenyl)-acetamide] to `O=C(Nc1cccc(OCc2ccccc2)c1)C(O)c1ccc(C(F)(F)F)cc1` (stereo not shown) [Compound 105, N-(3-Benzyloxy-phenyl)-2-hydroxy-2-(4-trifluoromethyl-phenyl)-acetamide], the “% Inhibition” value rises from 71% to 99%.

Going from `O=C(Cc1ccc(OCc2ccccc2)cc1)C(=O)NCC12CC3CC(CC(C3)C1)C2` [Compound 6, N-Adamantan-1-ylmethyl-3-(4-benzyloxy-phenyl)-2-oxo-propionamide] to `O=C(Cc1ccc(OCc2ccccc2)cc1)C(=O)NC12CC3CC(CC(C3)C1)C2` [Compound 7, N-Adamantan-1-yl-3-(4-benzyloxy-phenyl)-2-oxo-propionamide], the “% Inhibition” value rises from 71% to 75%.

Compared with `O=C(Nc1ccc(-n2ccnc2)cc1)C(=O)c1ccc(C(F)(F)F)cc1` [Compound 8, N-(4-Imidazol-1-yl-phenyl)-2-oxo-2-(4-trifluoromethyl-phenyl)-acetamide], `O=C(Nc1ccc(-n2ccnc2)cc1)C(=O)C12CC3CC(CC(C3)C1)C2` [Compound 21] is higher in “% Inhibition” value: 85% for the first, 93% for the second.

Going from `Cc1ccc(S(=O)(=O)N2CCC(NC(=O)C(=O)C3CCCCC3)CC2)cc1` [Compound 10, 2-Cyclohexyl-2-oxo-N-[1-(toluene-4-sulfonyl)-piperidin-4-yl]-acetamide] to `Cc1ccc(S(=O)(=O)N2CCC(NC(=O)C(=O)C34CC5CC(CC(C5)C3)C4)CC2)cc1` [Compound 18, 2-Adamantan-1-yl-2-oxo-N-[1-(toluene-4-sulfonyl)-piperidin-4-yl]-acetamide], the “% Inhibition” value rises from 70% to 93%.

Compared with `O=C(CC12CC3CC(CC(C3)C1)C2)C(=O)Nc1cccc(OCc2ccccc2)c1` [Compound 15, 3-Adamantan-1-yl-N-(3-benzyloxy-phenyl)-2-oxo-propionamide], `O=C(CC12CC3CC(CC(C3)C1)C2)C(=O)Nc1ccc(OCc2ccccc2)cc1` [Compound 17, 3-Adamantan-1-yl-N-(4-benzyloxy-phenyl)-2-oxo-propionamide] is lower in “% Inhibition” value: 86% for the first, 64% for the second.

Going from `Cc1ccc(S(=O)(=O)N2CCC(NC(=O)C(=O)CC34CC5CC(CC(C5)C3)C4)CC2)cc1` [Compound 19, 3-Adamantan-1-yl-2-oxo-N-[1-(toluene-4-sulfonyl)-piperidin-4-yl]-propionamide] to `COc1ccc(C(=O)C(=O)NCC23CC4CC(CC(C4)C2)C3)cc1` [Compound 22], the “% Inhibition” value falls from 99% to 78%.

Compared with `O=C(Nc1ccc(OCc2ccccc2)cc1)C(=O)C12CC3CC(CC(C3)C1)C2` [Compound 20], `O=C(NC12CC3CC(CC(C3)C1)C2)C(O)Cc1ccc(OCc2ccccc2)cc1` (stereo not shown) [Compound 107, N-Adamantan-1-yl-3-(4-benzyloxy-phenyl)-2-hydroxy-propionamide] is lower in “% Inhibition” value: 93% for the first, 91% for the second.

`O=C(CC12CC3CC(CC(C3)C1)C2)C(=O)NCCc1ccc(OCc2ccccc2)cc1` [Compound 24] and `O=C(NC12CC3CC(CC(C3)C1)C2)C(O)c1cccc(OCc2ccccc2)c1` (stereo not shown) [Compound 103, N-Adamantan-1-yl-2-(3-benzyloxy-phenyl)-2-hydroxy-acetamide] are the same in “% Inhibition” value: 87% for the first, 87% for the second.

Compared with `O=C(Nc1cccc(OCCCN2CCOCC2)c1)C(O)c1ccc(C(F)(F)F)cc1` (stereo not shown) [Compound 101, 2-Hydroxy-N-[3-(3-morpholin-4-yl-propoxy)-phenyl]-2-(4-trifluoromethyl-phenyl)-acetamide], `O=C(Nc1cccc(OCc2ccccc2)c1)C(O)C1CCCCC1` (stereo not shown) [Compound 113, N-(3-Benzyloxy-phenyl)-2-cyclohexyl-2-hydroxy-acetamide] is lower in “% Inhibition” value: 95% for the first, 66% for the second.

With `CCCC(=O)N1CCC(NC(=O)C(O)C2CCCCC2)CC1` (stereo not shown) [Compound 116, N-(1-Butyryl-piperidin-4-yl)-2-cyclohexyl-2-hydroxy-acetamide] the “% Inhibition” value was 81%.

Same assay, conditions: Concentration 50000 nM

Going from `O=C(Nc1ccc(C(=O)NCCN2CCOCC2)cc1)C(=O)c1ccc(C(F)(F)F)cc1` [Compound 2, N-(2-Morpholin-4-yl-ethyl)-4-[2-oxo-2-(4-trifluoromethyl-phenyl)-acetylamino]-benzamide] to `O=C(NCCN1CCOCC1)c1ccc(NC(=O)C(O)c2ccc(C(F)(F)F)cc2)cc1` (stereo not shown) [Compound 102, 4-[2-Hydroxy-2-(4-trifluoromethyl-phenyl)-acetylamino]-N-(2-morpholin-4-yl-ethyl)-benzamide], the “% Inhibition” value falls from 82% to 63%.

First: O=C(NC12CC3CC(CC(C3)C1)C2)C(=O)c1cccc(OCc2ccccc2)c1 [Compound 3, N-Adamantan-1-yl-2-(3-benzyloxy-phenyl)-2-oxo-acetamide]
Second: O=C(Nc1cccc(OCc2ccccc2)c1)C(=O)C1CCCCC1 [Compound 12, N-(3-Benzyloxy-phenyl)-2-cyclohexyl-2-oxo-acetamide]
The “% Inhibition” value of the first is lower: 96% for the first, 99% for the second.

First: COC1CCC(NC(=O)C(=O)c2ccc(C(F)(F)F)cc2)CC1 (stereo not shown) [Compound 4, N-(4-Methoxy-cyclohexyl)-2-oxo-2-(4-trifluoromethyl-phenyl)-acetamide]
Second: COC1CCC(NC(=O)C(O)c2ccc(C(F)(F)F)cc2)CC1 (stereo not shown) [Compound 104, 2-Hydroxy-N-(4-methoxy-cyclohexyl)-2-(4-trifluoromethyl-phenyl)-acetamide]
The “% Inhibition” value of the first is higher: 87% for the first, 79% for the second.

Compared with `Cc1ccc(S(=O)(=O)N2CCC(NC(=O)C(=O)c3ccc(C(F)(F)F)cc3)CC2)cc1` [Compound 9, 2-Oxo-N-[1-(toluene-4-sulfonyl)-piperidin-4-yl]-2-(4-trifluoromethyl-phenyl)-acetamide], `Cc1ccc(S(=O)(=O)N2CCC(NC(=O)C(O)c3ccc(C(F)(F)F)cc3)CC2)cc1` (stereo not shown) [Compound 108, 2-Hydroxy-N-[1-(toluene-4-sulfonyl)-piperidin-4-yl]-2-(4-trifluoromethyl-phenyl)-acetamide] is higher in “% Inhibition” value: 72% for the first, 80% for the second.

`O=C(Nc1ccc(-n2ccnc2)cc1)C(=O)C1CCCCC1` [Compound 11, 2-Cyclohexyl-N-(4-imidazol-1-yl-phenyl)-2-oxo-acetamide] and `O=C(Nc1ccc(-n2ccnc2)cc1)C(O)C1CCCCC1` (stereo not shown) [Compound 112, 2-Cyclohexyl-2-hydroxy-N-(4-imidazol-1-yl-phenyl)-acetamide] are the same in “% Inhibition” value: 80% for the first, 80% for the second.

Compared with `CCCC(=O)N1CCC(NC(=O)C(=O)c2ccc(C(F)(F)F)cc2)CC1` [Compound 14, N-(1-Butyryl-piperidin-4-yl)-2-oxo-2-(4-trifluoromethyl-phenyl)-acetamide], `CCCC(=O)N1CCC(NC(=O)C(O)c2ccc(C(F)(F)F)cc2)CC1` (stereo not shown) [Compound 114, N-(1-Butyryl-piperidin-4-yl)-2-hydroxy-2-(4-trifluoromethyl-phenyl)-acetamide] is lower in “% Inhibition” value: 77% for the first, 74% for the second.

Going from `CCCC(=O)N1CCC(NC(=O)C(=O)C2CCCCC2)CC1` [Compound 16, N-(1-Butyryl-piperidin-4-yl)-2-cyclohexyl-2-oxo-acetamide] to `O=C(CCc1ccc(C(F)(F)F)cc1)C(=O)Nc1ccc(OCc2ccccc2)cc1` [Compound 23], the “% Inhibition” value rises from 62% to 93%.

Same assay, conditions: Concentration 500000 nM

With `O=C(Nc1ccc(-n2ccnc2)cc1)C(O)c1ccc(C(F)(F)F)cc1` (stereo not shown) [Compound 109, 2-Hydroxy-N-(4-imidazol-1-yl-phenyl)-2-(4-trifluoromethyl-phenyl)-acetamide] the “% Inhibition” value was 80%.
